14 compounds from patent publication US20230233569A1 (Revolution Medicines, Inc., priority 2020, published 2023) can be followed below.

Experiment [1] relates to P70S6K (Thr389) phosphorylation (mTORC1) in MDA-MB-468 cells. Nature of the experiment: Cell based AlphaLISA assay, mTOR kinase cellular assay: inhibition of p-P70S6K (T389) in MDA-MB-468 cells. The settings on record: Homo sapiens, read-out: pIC50 for Inhibition of mTORC1 and mTORC2 Substarte Phosphorylation p-P70S6K-(T389) (converted). The protocol: Cell Based AlphaLISA Assays for Determining IC50 For Inhibition of P-Akt (S473), P-4E-BP1 (T37/46), and P-P70S6K (T389) in MDA-MB-468 Cells
mTOR Kinase Cellular Assay
To measure functional activity of mTORC1 and mTORC2 in cells the phosphorylation of 4EBP1 (Thr37/46) and P70S6K (Thr389), and AKT1/2/3 (Ser473) was monitored using AlphaLisa SureFire Ultra Kits (Perkin Elmer). MDA-MB-468 cells (ATCC® HTB-132) were cultured in 96-well tissue culture plates and treated with compounds in the disclosure at concentrations varying from 0.017-1,000 nM for two to four hours at 37° C. Incubations were terminated by removal of the assay buffer and addition of lysis buffer provided with the assay kit. Samples were processed according to the manufacturer's instructions. The Alpha signal from the respective phosphoproteins was measured in duplicate using a microplate reader (Envision, Perkin-Elmer or Spectramax M5, Molecular Devices). Inhibitor concentration response curves were analyzed using normalized IC50 regression curve fitting with control based normalization.
(In general: Bead proximity is the source of the signal in Alpha formats.)

Experiment [2] relates to AKT1/2/3 (Ser473) phosphorylation (mTORC2) in MDA-MB-468 cells. As to the kind of experiment: Cell based AlphaLISA assay, mTOR kinase cellular assay: inhibition of p-Akt (S473) in MDA-MB-468 cells. The settings on record: Homo sapiens, read-out: pIC50 for Inhibition of mTORC1 and mTORC2 Substarte Phosphorylation p-AKT1/2/3-(S473) (converted). The essentials:
(§1)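 MDA-MB-468 cells treated with compound at 0.017-1,000 nM for two to four hours at 37° C, then lysed. Phospho-AKT1/2/3 S473, 4EBP1 T37/46 and P70S6K T389 quantified by AlphaLISA SureFire Ultra in duplicate; IC50 from normalized regression with control-based normalization.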

Experiment [3] relates to 4EBP1 (Thr37/46) phosphorylation (mTORC1) in MDA-MB-468 cells. As to the kind of experiment: Cell based AlphaLISA assay, mTOR kinase cellular assay: inhibition of p-4E-BP1 (T37/46) in MDA-MB-468 cells. The settings on record: Homo sapiens, read-out: pIC50 for Inhibition of mTORC1 and mTORC2 Substarte Phosphorylation p-4E-BP1-(T37/46) (converted). The essentials:
as §1

On to `CO[C@H]1C[C@@H]2CC[C@@H](C)[C@@](O)(O2)C(=O)C(=O)N2CCCC[C@H]2C(=O)O[C@H]([C@H](C)C[C@@H]2CC[C@@H](OC(=O)NCCOCCOCCOCCOCCC(=O)NCCOCCOCCOCCOCCC(=O)NCCCCn3nc(-c4cnc5[nH]ccc5c4)c4c(N)ncnc43)[C@H](OC)C2)CC(=O)[C@H](C)/C=C(\C)[C@@H](O)[C@@H](OC)C(=O)[C@H](C)C[C@H](C)/C=C/C=C/C=C/1C` [Example 18], for which the IC50 in experiment [1] was not above 1 nM; in experiment [2], 31.6 to 1000 nM; in experiment [3], 3.16 to 31.6 nM.

As to `CO[C@H]1C[C@@H]2CC[C@@H](C)[C@@](O)(O2)C(=O)C(=O)N2CCCC[C@H]2C(=O)O[C@H]([C@H](C)C[C@@H]2CC[C@@H](OC(=O)NCCOCCOCCOCCOCCOCCOCCC(=O)NC3CCN(CC(=O)N4CCc5cc(Cn6nc(-c7ccc8oc(N)nc8c7)c7c(N)ncnc76)ccc5C4)CC3)[C@H](OC)C2)C[C@@H](O)[C@H](C)/C=C(\C)[C@@H](O)[C@@H](OC)C(=O)[C@H](C)C[C@H](C)/C=C/C=C/C=C/1C` [Example 112], the results for the IC50 in experiment [1], in experiment [2] and in experiment [3] were not above 1 nM, more than 1000 nM and more than 1000 nM, respectively.

`CO[C@H]1C[C@@H]2CC[C@@H](C)[C@@](O)(O2)C(=O)C(=O)N2CCCC[C@H]2C(=O)O[C@H]([C@H](C)C[C@@H]2CC[C@@H](OC(=O)N(C)Cc3cnc(N4CCN(c5ncc(C(=O)NCCOCCOCCOCCOCCC(=O)N6CCc7cc(Cn8nc(-c9cnc%10[nH]ccc%10c9)c9c(N)ncnc98)ccc7C6)cn5)CC4)nc3)[C@H](OC)C2)CC(=O)[C@H](C)/C=C(\C)[C@@H](O)[C@@H](OC)C(=O)[C@H](C)C[C@H](C)/C=C/C=C/C=C/1C` [Example 34]: the IC50 in experiment [1] was not above 1 nM; in experiment [2], more than 1000 nM; in experiment [3], more than 1000 nM.

With `CO[C@H]1C[C@@H]2CC[C@@H](C)[C@@](O)(O2)C(=O)C(=O)N2CCCC[C@H]2C(=O)O[C@H]([C@H](C)C[C@@H]2CC[C@@H](OC(=O)NCc3cnc(N4CCN(c5ncc(C(=O)NCCOCCOCCC(=O)N6CCc7cc(Cn8nc(-c9ccc%10oc(N)nc%10c9)c9c(N)ncnc98)ccc7C6)cn5)CC4)nc3)[C@H](OC)C2)CC(=O)[C@H](C)/C=C(\C)[C@@H](O)[C@@H](OC)C(=O)[C@H](C)C[C@H](C)/C=C/C=C/C=C/1C` [Example 31], the IC50 was not above 1 nM in experiment [1], 3.16 to 31.6 nM in experiment [2] and not above 3.16 nM in experiment [3].

`CO[C@H]1C[C@@H]2CC[C@@H](C)[C@@](O)(O2)C(=O)C(=O)N2CCCC[C@H]2C(=O)O[C@H]([C@H](C)C[C@@H]2CC[C@@H](OC(=O)NCc3cnc(N4CCN(C(=O)CCOCCN5CCN(c6ncc(C(=O)NCCOCCC(=O)NCCCCn7nc(-c8ccc9oc(N)nc9c8)c8c(N)ncnc87)cn6)CC5)CC4)nc3)[C@H](OC)C2)CC(=O)[C@H](C)/C=C(\C)[C@@H](O)[C@@H](OC)C(=O)[C@H](C)C[C@H](C)/C=C/C=C/C=C/1C` [Example 63]: the IC50 in experiment [1] was not above 1 nM; in experiment [2] it was not above 3.16 nM; in experiment [3], not above 3.16 nM.

`CO[C@H]1C[C@@H]2CC[C@@H](C)[C@@](O)(O2)C(=O)C(=O)N2CCCC[C@H]2C(=O)O[C@H]([C@H](C)C[C@@H]2CC[C@@H](OC(=O)NCCOCCC(=O)NCc3cnc(N4CCN(C(=O)CCOCCN5CCN(c6ncc(C(=O)N7CCc8cc(Cn9nc(-c%10ccc%11oc(N)nc%11c%10)c%10c(N)ncnc%109)ccc8C7)cn6)CC5)CC4)nc3)[C@H](OC)C2)CC(=O)[C@H](C)/C=C(\C)[C@@H](O)[C@@H](OC)C(=O)[C@H](C)C[C@H](C)/C=C/C=C/C=C/1C` [Example 67]: the figures for the IC50 in experiment [1], in experiment [2] and in experiment [3] were 10 to 1000 nM, 31.6 to 1000 nM and 31.6 to 1000 nM, respectively.

Turning to `CO[C@H]1C[C@@H]2CC[C@@H](C)[C@@](O)(O2)C(=O)C(=O)N2CCCC[C@H]2C(=O)O[C@H]([C@H](C)C[C@@H]2CC[C@@H](OC(=O)NCCOCCOCCOCCOCCOCCOCCC(=O)N3CCC(N4CCC(C(=O)N5CCc6cc(Cn7nc(-c8ccc9oc(N)nc9c8)c8c(N)ncnc87)ccc6C5)CC4)CC3)[C@H](OC)C2)C[C@@H](O)[C@H](C)/C=C(\C)[C@@H](O)[C@@H](OC)C(=O)[C@H](C)C[C@H](C)/C=C/C=C/C=C/1C` [Example 113], the results for the IC50 in experiment [1], in experiment [2] and in experiment [3] were not above 1 nM, 3.16 to 31.6 nM and not above 3.16 nM, respectively.

As to `CO[C@H]1C[C@@H]2CC[C@@H](C)[C@@](O)(O2)C(=O)C(=O)N2CCCC[C@H]2C(=O)O[C@H]([C@H](C)C[C@@H]2CC[C@@H](OC(=O)NCCOCCOCCOCCOCCOCCC(=O)NCCOCCOCCOCCOCCOCCC(=O)N3CCc4cc(Cn5nc(-c6cnc7[nH]ccc7c6)c6c(N)ncnc65)ccc4C3)[C@H](OC)C2)CC(=O)[C@H](C)/C=C(\C)[C@@H](O)[C@@H](OC)C(=O)[C@H](C)C[C@H](C)/C=C/C=C/C=C/1C` [Example 21], the results for the IC50 in experiment [1], in experiment [2] and in experiment [3] were not above 1 nM, 31.6 to 1000 nM and not above 3.16 nM, respectively.

Turning to `CO[C@H]1C[C@@H]2CC[C@@H](C)[C@@](O)(O2)C(=O)C(=O)N2CCCC[C@H]2C(=O)O[C@H]([C@H](C)C[C@@H]2CC[C@@H](OC(=O)N3CCc4nc(N5CCN(c6ncc(C(=O)NCCOCCOCCOCCOCCC(=O)N7CCc8cc(Cn9nc(-c%10ccc%11oc(N)nc%11c%10)c%10c(N)ncnc%109)ccc8C7)cn6)[C@@H](C(=O)O)C5)ncc4C3)[C@H](OC)C2)C[C@@H](OC)[C@H](C)/C=C(\C)[C@@H](O)[C@@H](OC)C(=O)[C@H](C)C[C@H](C)/C=C/C=C/C=C/1C` [Example 105], the results for the IC50 in experiment [1], in experiment [2] and in experiment [3] were not above 1 nM, more than 1000 nM and 3.16 to 31.6 nM, respectively.

`CO[C@H]1C[C@@H]2CC[C@@H](C)[C@@](O)(O2)C(=O)C(=O)N2CCCC[C@H]2C(=O)O[C@H]([C@H](C)C[C@@H]2CC[C@@H](OC(=O)NCc3cnc(N4CCN(C(=O)CCOCCOCCN5CCN(c6ncc(C(=O)N7CCc8cc(Cn9nc(-c%10cnc%11[nH]ccc%11c%10)c%10c(N)ncnc%109)ccc8C7)cn6)CC5)CC4)nc3)[C@H](OC)C2)CC(=O)[C@H](C)/C=C(\C)[C@@H](O)[C@@H](OC)C(=O)[C@H](C)C[C@H](C)/C=C/C=C/C=C/1C` [Example 123]: the IC50 was not above 1 nM in experiment [1], 31.6 to 1000 nM in experiment [2] and not above 3.16 nM in experiment [3].

`CO[C@H]1C[C@@H]2CC[C@@H](C)[C@@](O)(O2)C(=O)C(=O)N2CCCC[C@H]2C(=O)O[C@H]([C@H](C)C[C@@H]2CC[C@@H](OC(=O)NCc3cnc(N4CCN(CCOCCN5CCN(c6ncc(C(=O)N7CCc8cc(Cn9nc(-c%10cnc%11[nH]ccc%11c%10)c%10c(N)ncnc%109)ccc8C7)cn6)CC5)CC4)nc3)[C@H](OC)C2)CC(=O)[C@H](C)/C=C(\C)[C@@H](O)[C@@H](OC)C(=O)[C@H](C)C[C@H](C)/C=C/C=C/C=C/1C` [Example 127]: the IC50 was not above 1 nM in experiment [1], more than 1000 nM in experiment [2] and 3.16 to 31.6 nM in experiment [3].

For `CO[C@H]1C[C@@H]2CC[C@@H](C)[C@@](O)(O2)C(=O)C(=O)N2CCCC[C@H]2C(=O)O[C@H]([C@H](C)C[C@@H]2CC[C@@H](OC(=O)NCCOCCOCCOCCOCCC(=O)NCc3cnc(N4CCN(c5ncc(C(=O)N6CCc7cc(Cn8nc(-c9ccc%10oc(N)nc%10c9)c9c(N)ncnc98)ccc7C6)cn5)CC4)nc3)[C@H](OC)C2)C[C@@H](OC)[C@H](C)/C=C(\C)[C@@H](O)[C@@H](OC)C(=O)[C@H](C)C[C@H](C)/C=C/C=C/C=C/1C` [Example 50], the IC50 is not above 1 nM in experiment [1], 31.6 to 1000 nM in experiment [2] and not above 3.16 nM in experiment [3].

Consider `CO[C@H]1C[C@@H]2CC[C@@H](C)[C@@](O)(O2)C(=O)C(=O)N2CCCC[C@H]2C(=O)O[C@H]([C@H](C)C[C@@H]2CC[C@@H](OC(=O)NCc3cnc(N4CCN(C(=O)CCOCCN5CCN(c6ncc(C(=O)NCCOCCC(=O)N7CCc8cc(Cn9nc(-c%10ccc%11oc(N)nc%11c%10)c%10c(N)ncnc%109)ccc8C7)cn6)CC5)CC4)nc3)[C@H](OC)C2)C[C@@H](OC)[C@H](C)/C=C(\C)[C@@H](O)[C@@H](OC)C(=O)[C@H](C)C[C@H](C)/C=C/C=C/C=C/1C` [Example 65], for which the figures for the IC50 in experiment [1], in experiment [2] and in experiment [3] were not above 1 nM, 31.6 to 1000 nM and not above 3.16 nM, respectively.

In the case of `CO[C@H]1C[C@@H]2CC[C@@H](C)[C@@](O)(O2)C(=O)C(=O)N2CCCC[C@H]2C(=O)O[C@H]([C@H](C)C[C@@H]2CC[C@@H](OC(=O)NCCOCCOCCOCCOCCOCCOCCOCCOCCOCCOCCC(=O)N3CCC(n4nc(-c5cnc6[nH]ccc6c5)c5c(N)ncnc54)CC3)[C@H](OC)C2)CC(=O)[C@H](C)/C=C(\C)[C@@H](O)[C@@H](OC)C(=O)[C@H](C)C[C@H](C)/C=C/C=C/C=C/1C` [Example 20], the IC50 in experiment [1] was not above 1 nM; in experiment [2], not above 3.16 nM; in experiment [3], not above 3.16 nM.
